ChEMBL document CHEMBL1136440, “Design and synthesis of novel RXR-selective modulators with improved pharmacological profile” (Bioorg Med Chem Lett, 2003)
Values joined by “and” are separate entries in the source; they are usually repeats but may differ in a detail not shown here. Equal values may be shown once.

How the values were obtained:
[1] = target: T1, Retinoic acid receptor gamma (Homo sapiens, UniProt P13631); experiment: Binding affinity against RAR gamma receptor using [3H]ATRA as radioligand in CV-1 cells; type: cell-based, Cercopithecidae
T1 sequence (P13631 whole entry): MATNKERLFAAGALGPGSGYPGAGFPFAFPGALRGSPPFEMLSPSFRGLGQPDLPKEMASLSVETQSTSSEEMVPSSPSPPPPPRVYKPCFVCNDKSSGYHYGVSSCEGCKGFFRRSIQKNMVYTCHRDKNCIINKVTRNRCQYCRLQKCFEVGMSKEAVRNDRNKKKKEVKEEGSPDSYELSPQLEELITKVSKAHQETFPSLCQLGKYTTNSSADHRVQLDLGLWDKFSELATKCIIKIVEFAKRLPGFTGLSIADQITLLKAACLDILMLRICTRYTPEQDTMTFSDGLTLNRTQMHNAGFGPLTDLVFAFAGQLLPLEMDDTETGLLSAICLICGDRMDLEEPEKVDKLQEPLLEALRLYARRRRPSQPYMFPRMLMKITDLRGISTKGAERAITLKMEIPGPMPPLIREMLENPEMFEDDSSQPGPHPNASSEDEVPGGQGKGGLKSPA

[2] = Cmax value in IRC mice; type: ADME, organism-based; details: mouse, in vivo
[3] = Tmax value in IRC mice; type: ADME, organism-based; details: mouse, in vivo
[4] = target: T2, Retinoic acid receptor alpha (Homo sapiens, UniProt P10276); experiment: Binding affinity against RAR alpha receptor using [3H]ATRA as radioligand in CV-1 cells; type: cell-based, Cercopithecidae
T2 sequence (P10276 whole entry): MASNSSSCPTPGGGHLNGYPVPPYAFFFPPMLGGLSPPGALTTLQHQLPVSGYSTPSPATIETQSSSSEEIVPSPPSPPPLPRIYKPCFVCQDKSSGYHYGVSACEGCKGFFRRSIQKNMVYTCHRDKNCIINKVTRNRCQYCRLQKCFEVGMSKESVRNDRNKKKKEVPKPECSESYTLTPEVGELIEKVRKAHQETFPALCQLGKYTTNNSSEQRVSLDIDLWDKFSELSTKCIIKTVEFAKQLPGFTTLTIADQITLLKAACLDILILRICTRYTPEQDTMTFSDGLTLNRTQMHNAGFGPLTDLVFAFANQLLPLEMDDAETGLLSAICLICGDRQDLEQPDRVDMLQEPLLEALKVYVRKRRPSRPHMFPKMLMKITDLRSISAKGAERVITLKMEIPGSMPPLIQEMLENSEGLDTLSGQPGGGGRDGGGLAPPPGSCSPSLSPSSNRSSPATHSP

[5] = target: T3, Retinoic acid receptor beta (Homo sapiens, UniProt P10826); experiment: Binding affinity against RAR beta receptor using [3H]ATRA as radioligand in CV-1 cells; type: cell-based, Cercopithecidae
T3 sequence (P10826 whole entry): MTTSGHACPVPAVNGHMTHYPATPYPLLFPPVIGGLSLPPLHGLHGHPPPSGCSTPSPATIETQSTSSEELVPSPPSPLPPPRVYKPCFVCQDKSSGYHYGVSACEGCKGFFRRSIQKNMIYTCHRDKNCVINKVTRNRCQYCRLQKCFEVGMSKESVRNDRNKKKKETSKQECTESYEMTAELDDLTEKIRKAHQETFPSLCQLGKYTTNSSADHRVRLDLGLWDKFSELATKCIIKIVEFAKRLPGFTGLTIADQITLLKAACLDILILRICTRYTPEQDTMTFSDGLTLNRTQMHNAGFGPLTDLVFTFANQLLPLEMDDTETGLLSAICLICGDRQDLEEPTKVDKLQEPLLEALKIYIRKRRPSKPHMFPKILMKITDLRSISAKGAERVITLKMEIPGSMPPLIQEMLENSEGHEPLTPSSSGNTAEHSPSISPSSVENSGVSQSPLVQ

[6] = target: T4, Retinoic acid receptor alpha (Homo sapiens) (UniProt P10276); experiment: Agonist synergy against RAR alpha was tested along with 3 nM TTNPB; type: functional; details: Cercopithecidae
T4 sequence (whole entry): T2 sequence (P10276 whole entry)

[7] = target: T5, Peroxisome proliferator-activated receptor gamma (Homo sapiens, UniProt P37231)
T5 sequence (P37231 whole entry): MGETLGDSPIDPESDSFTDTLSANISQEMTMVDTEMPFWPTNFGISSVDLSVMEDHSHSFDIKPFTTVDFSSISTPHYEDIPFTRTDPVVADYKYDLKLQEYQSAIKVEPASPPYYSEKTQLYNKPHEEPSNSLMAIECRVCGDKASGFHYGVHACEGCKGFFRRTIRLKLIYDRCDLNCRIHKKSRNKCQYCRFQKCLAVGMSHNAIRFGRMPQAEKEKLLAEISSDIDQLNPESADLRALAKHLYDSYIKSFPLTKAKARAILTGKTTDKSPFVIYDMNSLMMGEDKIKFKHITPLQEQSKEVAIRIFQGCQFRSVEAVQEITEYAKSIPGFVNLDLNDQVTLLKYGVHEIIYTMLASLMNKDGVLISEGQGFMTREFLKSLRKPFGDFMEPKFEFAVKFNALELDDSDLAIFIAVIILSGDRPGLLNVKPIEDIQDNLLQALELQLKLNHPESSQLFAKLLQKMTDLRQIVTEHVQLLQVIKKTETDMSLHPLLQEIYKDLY
Description: In vitro agonistic activity against PPAR gamma along with 100 nM BRL-49653

[8] = target: T6, Retinoic acid receptor RXR-gamma (Homo sapiens, UniProt P48443); experiment: Binding affinity against RXR gamma receptor using [3H]9-cis-RA as radioligand in CV-1 cells; type: cell-based, Cercopithecidae
T6 sequence (P48443 whole entry): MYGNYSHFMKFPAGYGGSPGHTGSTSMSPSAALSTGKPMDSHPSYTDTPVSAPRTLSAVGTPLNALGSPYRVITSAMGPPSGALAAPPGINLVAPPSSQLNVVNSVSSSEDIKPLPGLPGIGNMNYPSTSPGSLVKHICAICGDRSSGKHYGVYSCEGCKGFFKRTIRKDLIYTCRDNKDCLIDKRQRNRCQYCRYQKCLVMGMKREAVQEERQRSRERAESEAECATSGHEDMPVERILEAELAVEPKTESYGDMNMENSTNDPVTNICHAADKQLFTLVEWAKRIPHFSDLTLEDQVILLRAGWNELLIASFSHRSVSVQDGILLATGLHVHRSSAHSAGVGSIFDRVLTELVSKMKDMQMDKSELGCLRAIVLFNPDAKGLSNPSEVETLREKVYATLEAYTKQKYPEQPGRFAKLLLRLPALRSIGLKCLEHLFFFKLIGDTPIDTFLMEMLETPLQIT

[9] = Area under curve at 0-8 hr in IRC mice after peroral administration; type: ADME, organism-based; parameters: time < 8 hr, route oral; details: mouse, in vivo, po
[10] = target: T5, Peroxisome proliferator-activated receptor gamma; remark: listed apart in the source
Description: In vitro agonist efficacy against PPAR gamma along with 100 nM BRL-49653

Structure (SMILES)	Ki [1]	Cmax [2]	Tmax [3]	Ki [4]	Ki [5]	Synergy [6]	EC50 [7]	Ki [8]	AUC(0-t) at 8 h [9]	EC50 [10]
C/C(=C/C=C/C(C)=C/C(=O)O)c1cc(-c2ccccc2F)cc(C(C)C)c1OCC(F)F	8760 nM	4140 ng/mL and 9.31 µM	1 h	6760 nM	3930 nM	1.5 nM	0.4 nM	10.9 nM	15200 ng·h/mL	46 nM
CCOc1c(\C(C)=C/C=C/C(C)=C/C(=O)O)cc(C(F)(F)C(F)(F)F)cc1C(C)C	> 10000 nM	4430 ng/mL and 10.2 µM	1 h	> 10000 nM	> 10000 nM	2.8 nM	0.7 nM	7.7 nM	14400 ng·h/mL	99 nM
